Experimental data taken from publication PMC6522981, “Structure-based design generated novel hydroxamic acid based preferential HDAC6 lead inhibitor with on-target cytotoxic activity against primary choroid plexus carcinoma” (Journal of Enzyme Inhibition and Medicinal Chemistry, 2019).
Read-outs that look alike come from different tables or passages of the source. Values belong to the compound of their own block, whether it stands above or below them.

Columns and labels:
[1] = test system: CCHE-45 cells (primary choroid plexus carcinoma); assay: Cytotoxicity assay using xCELLigence system; assay type: cell-based; conditions: xCELLigence, 96 h exposure; mean of three replicates; read-out: CCHE-45 IC50 (µM)±SEM
Procedure: Established primary Choroid plexus carcinoma (CCHE-45) were cultured as previously described, in RPMI-1640 (Lonza, BE-12-702F) supplemented with 10% Fetal Bovine Serum (FBS, Gibco, 12483–020) and 100 U/ml penicillin and 100 µg/ml streptomycin (Lonza, DE17-602F). Cells were maintained at 37 °C in a 5% CO2 humidified atmosphere.
Cytotoxicity assay by the xCELLigence system was performed using RTCA xCELLigence DP system (ACEA Biosciences, Inc., San Diego, CA, USA) as per manufacturer’s instructions https://www.aceabio.com/products/rtca-dp/, https://www.aceabio.com/products/rtca-sp[65–68]. In brief, after setting up the instruments and blanking the wells with media, CCHE-45 cells were seeded into the 96 well E-plate (ACEA Biosciences) with a density of 20,000 cells/well. Attachment and growth of the cells were monitored every 1 h. Approximately 24 h after seeding, when the cells were in the log growth phase, the cells were exposed to a range of test compound 10a concentrations (3.125, 6.25, 12.5, 25, 50, 100, 200, 400) µM for 96 h. Controls received either medium alone, or medium + DMSO with a final concentration below of 0.5%. For each concentration, duplicates were tested. Experiments were conducted in three biological repeats. Results were analyzed using the RTCA software (Version 2.0). Data was exported and average IC50 value was analyzed.
• Based on previous pilot experiment, the highest SK114 conc. (100µM)
72hrs, thus this experiment was performed with higher concentration
• Cells were incubated with the drug for 96hrs
• Experiment was done in technical duplicates

human HDAC6 [2] = target: T1, human HDAC6 (Homo sapiens, UniProt Q9UBN7); assay: HDAC6 inhibitor enzymatic assay, % inhibition at fixed concentration; conditions: for inhibition at 10 µM: read-out: %inhibition of HDACs at 10µM of test compound HDAC6
T1 sequence (Q9UBN7 1-1215): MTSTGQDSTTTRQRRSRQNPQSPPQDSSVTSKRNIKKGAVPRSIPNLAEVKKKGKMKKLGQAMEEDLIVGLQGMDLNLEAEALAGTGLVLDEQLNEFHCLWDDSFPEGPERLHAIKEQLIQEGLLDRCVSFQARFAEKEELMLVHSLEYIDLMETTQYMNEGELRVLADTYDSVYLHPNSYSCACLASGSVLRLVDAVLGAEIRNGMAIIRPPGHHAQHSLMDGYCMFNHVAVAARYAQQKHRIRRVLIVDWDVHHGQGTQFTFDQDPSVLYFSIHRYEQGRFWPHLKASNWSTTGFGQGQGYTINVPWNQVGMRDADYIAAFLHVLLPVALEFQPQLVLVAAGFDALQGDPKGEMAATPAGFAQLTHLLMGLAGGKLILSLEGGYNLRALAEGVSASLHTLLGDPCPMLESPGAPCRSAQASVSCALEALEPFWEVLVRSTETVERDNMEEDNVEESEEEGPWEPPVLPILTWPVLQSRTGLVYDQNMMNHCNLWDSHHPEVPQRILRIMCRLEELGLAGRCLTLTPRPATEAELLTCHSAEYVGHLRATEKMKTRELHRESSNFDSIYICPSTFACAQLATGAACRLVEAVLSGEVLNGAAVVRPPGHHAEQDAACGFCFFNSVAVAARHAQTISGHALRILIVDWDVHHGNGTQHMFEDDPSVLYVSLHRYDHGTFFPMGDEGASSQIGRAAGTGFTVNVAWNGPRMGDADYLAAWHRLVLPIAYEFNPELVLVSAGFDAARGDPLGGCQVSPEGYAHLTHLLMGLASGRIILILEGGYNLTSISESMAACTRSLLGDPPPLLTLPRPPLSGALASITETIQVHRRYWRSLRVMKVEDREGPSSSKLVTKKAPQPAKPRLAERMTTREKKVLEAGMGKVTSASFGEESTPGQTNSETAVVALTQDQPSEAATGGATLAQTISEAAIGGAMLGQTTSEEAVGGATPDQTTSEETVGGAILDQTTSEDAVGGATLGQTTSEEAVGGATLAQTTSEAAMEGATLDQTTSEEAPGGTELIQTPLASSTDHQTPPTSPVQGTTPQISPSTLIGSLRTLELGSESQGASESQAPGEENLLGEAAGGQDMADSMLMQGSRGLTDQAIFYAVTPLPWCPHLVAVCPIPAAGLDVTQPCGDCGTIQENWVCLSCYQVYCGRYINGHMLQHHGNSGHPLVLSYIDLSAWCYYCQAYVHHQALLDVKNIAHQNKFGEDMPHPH

human HDAC2 = target: T2, human HDAC2 (Homo sapiens, UniProt Q92769); assay: HDAC2 inhibitor enzymatic assay, % inhibition at fixed concentration; assay type: biochemical; conditions: read-out: %inhibition of HDACs at 10µM of test compound HDAC2; 10 µM compound; mean of two replicates
T2 construct: purchased BPS Bioscience 50002

human HDAC8 = target: T3, human HDAC8 (Homo sapiens, UniProt Q9BY41); assay: HDAC8 inhibitor enzymatic assay, % inhibition at fixed concentration; assay type: biochemical; conditions: for inhibition at 10 µM: read-out: %inhibition of HDACs at 10µM of test compound HDAC8
T3 construct: purchased BPS Bioscience 50008
T3 sequence (Q9BY41 1-377): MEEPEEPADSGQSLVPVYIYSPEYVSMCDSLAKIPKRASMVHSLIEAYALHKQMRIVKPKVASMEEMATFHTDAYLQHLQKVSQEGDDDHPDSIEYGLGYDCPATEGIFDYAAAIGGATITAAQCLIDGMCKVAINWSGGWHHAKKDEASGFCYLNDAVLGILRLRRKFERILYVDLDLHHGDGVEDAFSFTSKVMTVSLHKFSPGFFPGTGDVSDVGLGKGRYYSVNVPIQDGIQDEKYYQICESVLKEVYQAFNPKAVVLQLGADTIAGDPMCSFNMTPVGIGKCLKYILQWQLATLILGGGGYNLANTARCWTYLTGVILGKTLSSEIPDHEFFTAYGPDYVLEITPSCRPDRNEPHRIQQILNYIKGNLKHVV

human HDAC1 = target: T4, human HDAC1 (Homo sapiens, UniProt Q13547); assay: HDAC1 inhibitor enzymatic assay, % inhibition at fixed concentration (BPS Bioscience, fluorogenic); assay type: biochemical; conditions: read-out: %inhibition of HDACs at 10µM of test compound HDAC1; 10 µM compound; mean of two replicates
T4 construct: purchased BPS Bioscience 50051

human HDAC5 = human HDAC5 (Homo sapiens, UniProt Q9UQL6); assay: HDAC5 inhibitor enzymatic assay, % inhibition at fixed concentration
human HDAC9 = human HDAC9 (Homo sapiens, UniProt Q9UKV0); assay: HDAC9 inhibitor enzymatic assay, % inhibition at fixed concentration
human HDAC6 [3] = target: T1, human HDAC6; assay: IC50 of the test inhibitor against HDAC6 (10-dose enzymatic assay); assay type: biochemical; set-up: purchased BPS Bioscience 50006
human HDAC4 = human HDAC4 (Homo sapiens, UniProt P56524); assay: HDAC4 inhibitor enzymatic assay, % inhibition at fixed concentration
human HDAC11 = target: T5, human HDAC11 (Homo sapiens, UniProt Q96DB2); assay: HDAC11 inhibitor enzymatic assay, % inhibition at fixed concentration
T5 sequence (Q96DB2 1-347): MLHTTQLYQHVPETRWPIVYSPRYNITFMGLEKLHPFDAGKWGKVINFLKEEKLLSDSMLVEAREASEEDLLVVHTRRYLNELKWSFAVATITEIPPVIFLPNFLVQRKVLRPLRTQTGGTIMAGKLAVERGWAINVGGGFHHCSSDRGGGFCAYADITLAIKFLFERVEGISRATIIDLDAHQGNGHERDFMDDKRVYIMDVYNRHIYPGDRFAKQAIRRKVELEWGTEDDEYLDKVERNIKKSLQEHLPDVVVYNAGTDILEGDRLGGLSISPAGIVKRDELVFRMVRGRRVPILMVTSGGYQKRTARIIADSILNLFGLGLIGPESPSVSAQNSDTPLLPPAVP

[4] = read-out: HDAC6 % Activity Repeat1
[5] = read-out: HDAC6 % Activity Repeat2

Sequence of human HDAC4 (P56524 627-1084 limits assumed): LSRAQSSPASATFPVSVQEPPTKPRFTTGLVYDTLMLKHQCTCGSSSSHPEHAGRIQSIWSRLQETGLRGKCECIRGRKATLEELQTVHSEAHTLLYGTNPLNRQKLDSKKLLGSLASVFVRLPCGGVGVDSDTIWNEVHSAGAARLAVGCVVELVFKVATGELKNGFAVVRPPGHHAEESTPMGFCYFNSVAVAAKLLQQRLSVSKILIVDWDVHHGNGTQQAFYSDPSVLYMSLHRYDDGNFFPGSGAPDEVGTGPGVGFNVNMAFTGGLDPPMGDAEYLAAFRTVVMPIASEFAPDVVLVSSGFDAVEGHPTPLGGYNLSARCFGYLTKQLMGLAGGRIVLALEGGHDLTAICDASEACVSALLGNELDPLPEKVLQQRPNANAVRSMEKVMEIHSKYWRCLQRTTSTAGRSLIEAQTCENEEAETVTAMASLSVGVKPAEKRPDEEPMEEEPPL
Sequence of human HDAC9 (Q9UKV0 1-1066 isoform Q9UKV0-5): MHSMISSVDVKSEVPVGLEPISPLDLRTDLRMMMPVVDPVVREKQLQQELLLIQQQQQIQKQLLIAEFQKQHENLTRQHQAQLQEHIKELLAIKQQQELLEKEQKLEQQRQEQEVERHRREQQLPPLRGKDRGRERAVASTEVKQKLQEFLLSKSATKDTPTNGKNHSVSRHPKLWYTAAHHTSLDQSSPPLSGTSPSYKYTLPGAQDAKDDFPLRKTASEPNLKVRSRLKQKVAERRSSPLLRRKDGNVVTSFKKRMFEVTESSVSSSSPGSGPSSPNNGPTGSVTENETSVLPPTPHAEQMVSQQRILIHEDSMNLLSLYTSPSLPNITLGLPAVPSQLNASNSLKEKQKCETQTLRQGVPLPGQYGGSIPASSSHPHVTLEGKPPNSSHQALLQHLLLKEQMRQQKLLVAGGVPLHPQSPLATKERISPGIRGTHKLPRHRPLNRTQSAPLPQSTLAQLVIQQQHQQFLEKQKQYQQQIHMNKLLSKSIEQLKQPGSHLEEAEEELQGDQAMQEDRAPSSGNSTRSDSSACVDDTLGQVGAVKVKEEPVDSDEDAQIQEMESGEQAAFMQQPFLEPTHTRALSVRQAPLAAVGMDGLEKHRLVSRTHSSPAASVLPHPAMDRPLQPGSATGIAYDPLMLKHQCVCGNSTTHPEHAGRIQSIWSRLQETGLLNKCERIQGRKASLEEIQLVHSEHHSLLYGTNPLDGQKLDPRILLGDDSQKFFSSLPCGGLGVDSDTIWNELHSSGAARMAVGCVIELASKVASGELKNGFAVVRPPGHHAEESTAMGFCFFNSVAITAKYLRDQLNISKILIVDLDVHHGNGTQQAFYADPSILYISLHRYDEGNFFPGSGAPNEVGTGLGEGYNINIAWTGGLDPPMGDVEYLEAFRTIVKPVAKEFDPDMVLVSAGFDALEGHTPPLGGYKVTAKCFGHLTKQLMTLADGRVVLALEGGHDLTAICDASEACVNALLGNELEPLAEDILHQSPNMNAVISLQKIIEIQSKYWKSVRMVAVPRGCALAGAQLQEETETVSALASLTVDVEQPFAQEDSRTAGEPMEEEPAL
T4 sequence (Q13547 whole entry): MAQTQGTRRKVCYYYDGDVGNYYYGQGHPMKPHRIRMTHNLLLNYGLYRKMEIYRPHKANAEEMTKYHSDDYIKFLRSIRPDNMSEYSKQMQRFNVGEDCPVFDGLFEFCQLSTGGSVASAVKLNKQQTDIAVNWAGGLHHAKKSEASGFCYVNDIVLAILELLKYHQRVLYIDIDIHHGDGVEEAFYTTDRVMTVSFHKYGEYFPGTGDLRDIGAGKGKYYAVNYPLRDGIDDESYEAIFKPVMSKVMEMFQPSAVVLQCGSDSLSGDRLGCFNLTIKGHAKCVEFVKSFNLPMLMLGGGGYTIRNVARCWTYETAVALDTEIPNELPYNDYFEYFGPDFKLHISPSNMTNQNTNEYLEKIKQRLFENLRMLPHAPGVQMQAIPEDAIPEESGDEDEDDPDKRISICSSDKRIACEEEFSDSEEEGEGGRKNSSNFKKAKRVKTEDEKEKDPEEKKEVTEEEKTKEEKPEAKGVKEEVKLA
Sequence of human HDAC5 (Q9UQL6 656-1122 limits assumed): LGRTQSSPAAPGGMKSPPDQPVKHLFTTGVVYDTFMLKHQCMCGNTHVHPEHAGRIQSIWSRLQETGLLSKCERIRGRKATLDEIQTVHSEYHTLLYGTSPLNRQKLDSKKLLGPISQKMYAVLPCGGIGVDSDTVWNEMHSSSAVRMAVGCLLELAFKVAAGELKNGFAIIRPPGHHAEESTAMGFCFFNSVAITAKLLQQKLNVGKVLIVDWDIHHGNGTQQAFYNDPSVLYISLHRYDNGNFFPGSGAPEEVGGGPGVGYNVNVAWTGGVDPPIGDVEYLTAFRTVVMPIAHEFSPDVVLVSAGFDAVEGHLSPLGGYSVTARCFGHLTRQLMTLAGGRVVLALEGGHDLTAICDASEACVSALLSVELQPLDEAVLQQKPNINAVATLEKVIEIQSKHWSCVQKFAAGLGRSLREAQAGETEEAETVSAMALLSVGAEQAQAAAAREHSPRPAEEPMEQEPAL
T2 sequence (Q92769 whole entry): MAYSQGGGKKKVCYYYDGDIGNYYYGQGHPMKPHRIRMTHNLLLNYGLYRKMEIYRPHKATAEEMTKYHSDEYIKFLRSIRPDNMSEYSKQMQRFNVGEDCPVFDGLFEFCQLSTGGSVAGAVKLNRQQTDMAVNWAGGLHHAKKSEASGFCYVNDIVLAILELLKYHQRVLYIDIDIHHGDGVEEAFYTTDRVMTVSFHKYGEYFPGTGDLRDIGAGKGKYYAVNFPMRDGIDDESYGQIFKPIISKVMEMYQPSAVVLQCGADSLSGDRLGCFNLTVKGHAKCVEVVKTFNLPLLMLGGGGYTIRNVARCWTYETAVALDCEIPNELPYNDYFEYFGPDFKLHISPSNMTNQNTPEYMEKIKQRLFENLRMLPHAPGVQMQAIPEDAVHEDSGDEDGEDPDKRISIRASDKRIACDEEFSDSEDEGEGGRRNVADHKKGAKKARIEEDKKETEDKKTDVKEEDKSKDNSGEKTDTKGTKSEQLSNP

- inhibition at 10 µM (human HDAC6 [2]): 12%
- inhibition at 10 µM (human HDAC2): 9%
- melting point: 153 °C
- inhibition at 10 µM (human HDAC8; 10 µM compound): 1%
- inhibition at 10 µM (human HDAC1): 9%
Structure (SMILES): O=C(CCCSc1nc2ccccc2n1Cc1ccc(Br)cc1)NO [Compound 10b, 4-((1–(4-bromobenzyl)-1H-benzo[d]imidazol-2-yl)thio)-N-hydroxybutanamide]

- inhibition at 10 µM (human HDAC6 [2]): 35%
- inhibition at 10 µM (human HDAC2): 8%
- melting point: 132 °C
- inhibition at 10 µM (human HDAC8; 10 µM compound): 10%
- inhibition at 10 µM (human HDAC1): 11%
Structure (SMILES): O=C(CCCSc1nc2ccccc2n1CCC1CCCCC1)NO [Compound 10d, 4-((1–(2-cyclohexylethyl)-1H-benzo[d]imidazol-2-yl)thio)-N-hydroxybutanamide]

- inhibition at 10 µM (human HDAC6 [2]): 14%
- inhibition at 10 µM (human HDAC2): 8%
- melting point: 149 °C
- inhibition at 10 µM (human HDAC8; 10 µM compound): 12%
- inhibition at 10 µM (human HDAC1): 9%
Structure (SMILES): O=C(CCCSc1nc2ccccc2n1CC1CCCCC1)NO [Compound 10c, 4-((1-(Cyclohexylmethyl)-1H-benzo[d]imidazol-2-yl)thio)-N-hydroxybutanamide]

The next lines start with the compound.

Structure (SMILES): O=C(CCCCCCC(=O)Nc1ccc([C@H]2O[C@@H](CSc3nc(-c4ccccc4)c(-c4ccccc4)o3)C[C@@H](c3ccc(CO)cc3)O2)cc1)NO [Tubacin, reference compound]
- IC50 [1]: 20 ± 10.2 µM

Structure (SMILES): O=C(CSc1nc2ccccc2n1Cc1ccc(Br)cc1)NO [Compound 6b, 2-((1–(4-bromobenzyl)-1H-benzo[d]imidazol-2-yl)thio)-N-hydroxyacetamide]
- inhibition at 10 µM (human HDAC6 [2]): 6%
- inhibition at 10 µM (human HDAC2): 6%
- melting point: 167 °C
- inhibition at 10 µM (human HDAC8; 10 µM compound): 12%
- inhibition at 10 µM (human HDAC1): 18%

Structure (SMILES): O=C(CSc1nc2ccccc2n1CC1CCCCC1)NO [Compound 6c, 2-((1-(Cyclohexylmethyl)-1H-benzo[d]imidazol-2-yl)thio)-N-hydroxyacetamide]
- inhibition at 10 µM (human HDAC6 [2]): 2%
- inhibition at 10 µM (human HDAC2): 7%
- melting point: 160 °C
- inhibition at 10 µM (human HDAC8; 10 µM compound): 14%
- inhibition at 10 µM (human HDAC1): 13%

Structure (SMILES): O=C(CSc1nc2ccccc2n1Cc1ccccc1)NO [Compound 6a, 2-((1-benzyl-1H-benzo[d]imidazol-2-yl)thio)-N-hydroxyacetamide]
- inhibition at 10 µM (human HDAC6 [2]): 2%
- inhibition at 10 µM (human HDAC2): 5%
- melting point: 97 °C
- inhibition at 10 µM (human HDAC8; 10 µM compound): 14%
- inhibition at 10 µM (human HDAC1): 6%

Structure (SMILES): O=C(CSc1nc2ccccc2n1CCC1CCCCC1)NO [Compound 6d, 2-((1–(2-cyclohexylethyl)-1H-benzo[d]imidazol-2-yl)thio)-N-hydroxyacetamide]
- inhibition at 10 µM (human HDAC6 [2]): 2%
- inhibition at 10 µM (human HDAC2): 3%
- melting point: 157 °C
- inhibition at 10 µM (human HDAC8; 10 µM compound): 1%
- inhibition at 10 µM (human HDAC1): 14%

Structure (SMILES): CC(=C/C(C)C(=O)c1ccc(N(C)C)cc1)/C=C/C(=O)NO (centres unmarked) [TSA, Trichostatin A, reference compound]
- inhibition at 1 µM (human HDAC6 [2]; read-out: % Inhibition HDAC6): 100%
- inhibition at 1 µM (human HDAC5; read-out: % Inhibition HDAC5): 33%
- inhibition at 100 µM (human HDAC5; read-out: % Inhibition HDAC5): 93%
- inhibition at 10 µM (human HDAC5; read-out: %inhibition of HDACs at 10µM of test compound HDAC5): 64%
- inhibition at 1 µM (human HDAC9; read-out: % Inhibition HDAC9): 15%
- inhibition at 100 µM (human HDAC9; read-out: % Inhibition HDAC9): 95%
- inhibition at 10 µM (human HDAC9; read-out: %inhibition of HDACs at 10µM of test compound HDAC9): 60%
- inhibition at 1 µM (human HDAC8; read-out: % Inhibition HDAC8): 53%
- inhibition at 10 µM (human HDAC8): 89%
- activity at 30 pM (human HDAC6 [3]; [4]): 100%
- activity at 0.0001 µM (human HDAC6 [3]; [4]): 98%
- activity at 0.0003 µM (human HDAC6 [3]; [4]): 96%
- activity at 0.001 µM (human HDAC6 [3]; [4]): 79%
- activity at 0.003 µM (human HDAC6 [3]; [4]): 63%
- activity at 0.01 µM (human HDAC6 [3]; [4]): 36%
- activity at 0.03 µM (human HDAC6 [3]; [4]): 15%
- activity at 0.1 µM (human HDAC6 [3]; [4]): 5%
- activity at 0.3 µM (human HDAC6 [3]; [4]): 2%
- activity at 1 µM (human HDAC6 [3]; [4]): 0%
- activity at 30 pM (human HDAC6 [3]; [5]): 98%
- activity at 0.0001 µM (human HDAC6 [3]; [5]): 96%
- activity at 0.0003 µM (human HDAC6 [3]; [5]): 89%
- activity at 0.001 µM (human HDAC6 [3]; [5]): 84%
- activity at 0.003 µM (human HDAC6 [3]; [5]): 58%
- activity at 0.01 µM (human HDAC6 [3]; [5]): 34%
- activity at 0.03 µM (human HDAC6 [3]; [5]): 13%
- activity at 0.1 µM (human HDAC6 [3]; [5]): 5%
- activity at 0.3 µM (human HDAC6 [3]; [5]): 2%
- activity at 1 µM (human HDAC6 [3]; [5]): 0%
- inhibition at 1 µM (human HDAC4; read-out: % Inhibition HDAC4): 36%
- inhibition at 100 µM (human HDAC4; read-out: % Inhibition HDAC4): 92%
- inhibition at 10 µM (human HDAC4; read-out: %inhibition of HDACs at 10µM of test compound HDAC4): 64%
- inhibition at 1 µM (human HDAC11; read-out: % Inhibition HDAC11): 15%
- inhibition at 100 µM (human HDAC11; read-out: % Inhibition HDAC11): 91%
- inhibition at 10 µM (human HDAC11; read-out: %inhibition of HDACs at 10µM of test compound HDAC11): 49%
